We go through 7 molecules from patent US6800612B2, “S-nitrosothiols as agents for the treatment of circulatory dysfunctions” (Lacer, S.A., priority 2000, dated 2004).

Like-named read-outs stand apart in the source and are kept apart here.

Assay [1] relates to human washed platelet preparations. The assay can be described thus: Test in vitro of the blockage of platelet aggregation inhibition by ODQ. The conditions noted are these: for blocking of the inhibiting effect by ODQ: IC50 dose of the compounds; for inhibition at 0.1 µM / inhibition at 0.3 µM / inhibition at 1 µM: Homo sapiens, Platelet; for inhibition at 1 µM: 1 μM compound. It counts as cell-based. How it is done: Test In Vitro of the Blockage of Platelet Aggregation Inhibition. The method used in the test is substantially the same as described in the references cited in example 8, completed with the reference: Moro MA, et al. Pr Nat Acad Sc USA. 1996 ;93:1480-5. The ODQ is tested in vitro to block the inhibition of platelet aggregation reached by the obtained products in human washed platelet preparations. […] The obtained results are compared to those from the GSNO (reference product) and with the values in absence of ODQ.

The subject of a further assay is arterial ring. Put plainly: Tests for in vitro vasodilatation (arterial rings contracted with 1 μM Norepinephrine). It counts as cell-based. The conditions noted are these: for EC50: vasodilatation of 50% of arterial ring previously contracted with 1 μM Norepinephrine, 6 to 9 rings, read-out: CE50 (average ± SD), vasodilatation. How it is done:
Tests for In Vitro Vasodilatation. The method used in the assays is substantially the same as described in the following references: Furchgot, R. F. “Methods in nitric oxide research”. Feelisch & Stamler eds. John Wiley &Sons, Chichester, England, pp 567-581. Trongvanichnam, K, et al. Jpn J. […]., et al. Eur. J. Pharmacol. 1994; 258:47-55. The compounds are tested at 5 different concentrations, at a concentration range from 0,001 y 10 mM, using from 6 to 9 arterial rings for each compound. The obtained results are compared to those from the S-nitrosoglutathione (GSNO), which is used as reference product.

Another assay deals with human washed platelets. Put plainly: Tests in vitro of the increase of the intra-platelet levels of GMPc. The conditions noted are these: for GMPc intra-platelet level: human washed platelets. Format: cell-based. The source says: Tests In Vitro of the Increase of the Intra-platelet Levels of GMPc. […] The method used in the test is substantially the same as described in the references cited in example 8. […] The obtained results are compared to those from the GSNO (reference product) and with the basal values.

The test system of another assay is platelets. The assay can be described thus: Tests in vitro of the inhibition of the aggregation of the platelets (collagen 1 μg/mL). It counts as cell-based, human. To be noted: for IC50: aggregation obtained with sub-maximal collagen concentration (1 μg/mL), read-out: IC50 (average ± SD), inhibition of the aggregation of the platelets; for inhibiting activity on platelets aggregation compared to the reference compound (GSNO): in words. The source says: Tests In Vitro of the Inhibition of the Aggregation of the Platelets. The method used in the assays is substantially the same as described in following references: Loscalzo J, et al. En: Methods in nitric oxide research (Feelisch M, Stamler JS, eds.) John Wiley & Sons, Chichester, England, pp 583-591. Radomski MW, et al. Br J Pharmacol 1987;92:181-187. […], et al. Br J Pharmacol 1994;112:1071-1076. […] The obtained results are compared to those from the S-nitrosoglutathione (GSNO), which is used as reference product.

Regarding “N[N-γ-L-glutamyl-2-amino-2-(4-(4-S-nitrosomercapto-1-methyl-piperidin))acetyl ] glycine [Product obtained in example 5]”, the “% inhibition with ODQ” value in assay [1] (0.003 μM compound, ODQ 1 μM) is 0%; in assay [1] (0.01 μM compound, ODQ 1 μM) it was 0%; in assay [1] (0.03 μM compound, ODQ 1 μM), 0%; in assay [1] (0.1 μM compound, ODQ 1 μM), 0%; in assay [1] (0.3 μM compound, ODQ 1 μM), 0%. Further, the “% inhibition without ODQ” value in assay [1] (0.003 μM compound, inhibition of the maximum aggregation) is given as 0%; in assay [1] (0.01 μM compound, inhibition of the maximum aggregation) it was 17%; in assay [1] (0.03 μM compound, inhibition of the maximum aggregation), 83 ± 1.4%; in assay [1] (0.1 μM compound, inhibition of the maximum aggregation) it was 96%; in assay [1] (0.3 μM compound, inhibition of the maximum aggregation), 96%. Besides, the “blocking of the inhibiting effect by ODQ” value in assay [1] (ODQ 1 μM, in words) is on record as “capable of blocking the inhibiting effect”. In addition, the “blocking of the inhibition of aggregation by ODQ compared to the reference product” value in assay [1] (ODQ 1 μM, at higher doses to that of the IC50, in words) was “better blocked”. Also, the EC50 with arterial ring was determined as 1890 ± 820 nM. The GMPc intra-platelet level was determined as 1.60 ± 0.5 pmol/10^9 platelets with human washed platelets (0.03 μM compound), 1.50 ± 0.4 pmol/10^9 platelets in the assay on human washed platelets (0.1 μM compound), 6.50 ± 0.5 pmol/10^9 platelets in the assay with human washed platelets (0.3 μM compound) and 21.1 ± 0.5 pmol/10^9 platelets in the assay with human washed platelets (1 μM compound). Further, the “increase of intra-platelet levels of GMPc compared to GSNO” value with human washed platelets (in words) was “in a similar manner to that of the GSNO reference”. Further, in the assay with human washed platelets (values close to the IC50, in words), the “levels of GMPc at concentrations close to the IC50, compared to GSNO” value is “lower as that of the GSNO”. Further, in the assay on platelets, the IC50 is 47 ± 11 nM. Besides, the “inhibiting activity on platelets aggregation compared to the reference compound (GSNO)” value with platelets was “highly superior to that of the reference product”.

For `CC(=O)NC(C(=O)O)C(Cc1ccccc1)(Cc1ccccc1)SN=O` (stereo not drawn) [Product obtained in example 3, N-acetyl-2-amino-3-benzyl-3-S-ni-trosomercapto-4-phenyl-butanoic Acid], in the assay with arterial ring, the EC50 was 630 ± 210 nM. Moreover, in the assay on platelets, the half-maximal inhibitory concentration (IC50) came out at 240 ± 27 nM.

Regarding `CC(=O)NC(C(=O)O)C1(SN=O)CCOCC1` (stereo not drawn) [Product obtained in example 1, N-acetyl-2-amino-2-[4-(4-S-Nitro-somercaptotetrahydropyran) ] Acetic Acid], the EC50 in the assay on arterial ring was determined as 375 ± 50 nM. For the same molecule, in the assay on platelets, the IC50 was determined as 70 ± 20 nM and the “inhibiting activity on platelets aggregation compared to the reference compound (GSNO)” value is on record as “highly superior to that of the reference product”.

Take `N[C@@H](CCC(=O)NC(C(=O)NCC(=O)O)C(Cc1ccccc1)(Cc1ccccc1)SN=O)C(=O)O` (stereo partly drawn) [Product obtained in example 6, N[N-γ-L-glutamyl-2-amino-3-benzyl-3-(S-nitrosomercapto)-4-phenylbutanoyl] glycine]: in the assay on platelets, the IC50 turned out to be 350 ± 110 nM.

Consider “N[N-γ-L-glutamyl-2-amino-2-(4-(4—S—nitrosomercapto)tetrahydropyran)) acetyl]glycine [Product obtained in example 4]”, for which, in the assay with arterial ring, the EC50 is 1730 ± 270 nM. Further, the IC50 in the assay on platelets worked out at 200 ± 120 nM.

Regarding `CC(=O)NC(C(=O)O)C1(SN=O)CCN(C)CC1` (stereo not drawn) [Product obtained in example 2, N-acetyl-2-amino-2-[4-(4-S-nitro-somercapto-1-methylpiperidin)] Acetic Acid], the “vasodilating activity compared to the reference compound (GSNO)” value in the assay with arterial ring (in words) is reported as “highly superior to that of the reference product”. The EC50 in the assay with arterial ring turned out to be 24 ± 3 nM. For the same molecule, the IC50 in the assay with platelets came out at 190 ± 20 nM.

As to `N[C@@H](CCC(=O)N[C@@H](CSN=O)C(=O)NCC(=O)O)C(=O)O` [GSNO, S-nitrosoglutathione, reference compound], the inhibition at 0.1 µM was 0% in assay [1] (0.1 μM compound, ODQ 1 μM, read-out: % inhibition with ODQ) and 34.2 ± 25% in assay [1] (0.1 μM compound, inhibition of the maximum aggregation, read-out: % inhibition without ODQ). In addition, the inhibition at 0.3 µM in assay [1] (0.3 μM compound, ODQ 1 μM, read-out: % inhibition with ODQ) stood at 3.3 ± 3%; in assay [1] (0.3 μM compound, inhibition of the maximum aggregation, read-out: % inhibition without ODQ), 79.3 ± 17%. In addition, the inhibition at 1 µM was determined as 32.6 ± 0.9% in assay [1] (ODQ 1 μM, read-out: % inhibition with ODQ) and 92.65 ± 0.9% in assay [1] (inhibition of the maximum aggregation, read-out: % inhibition without ODQ). Moreover, the “blocking of the inhibiting effect by ODQ” value in assay [1] (ODQ 1 μM, in words) is on record as “capable of blocking the inhibiting effect”. Moreover, the EC50 in the assay with arterial ring amounted to 1560 ± 550 nM. Also, the GMPc intra-platelet level was found to be 1 ± 0.5 pmol/10^9 platelets in the assay with human washed platelets (0.1 μM compound), 6.6 ± 0.6 pmol/10^9 platelets with human washed platelets (0.3 μM compound), 24 ± 0.5 pmol/10^9 platelets in the assay on human washed platelets (1 μM compound) and 27.6 ± 6.0 pmol/10^9 platelets in the assay on human washed platelets (3 μM compound). Further, in the assay with platelets (Homo sapiens, Platelet), the IC50 came to 480 ± 190 nM.
